{"source": "ChEMBL document CHEMBL3217712", "about": "“Improved biodistribution, pharmacokinetics and photodynamic efficacy using a new photostable sulfonamide bacteriochlorin” (Medchemcomm, 2012)", "key": {"[1]": {"assay": "n-Octanol-water partition coefficient, log P of the compound", "type": "physicochemical"}, "S91": {"system": "S91", "assay": "Photodynamic efficacy against mouse Cloudman S91 cells allografted in DBA mouse assessed as time of tumor growth delay at 2 mg/kg, iv followed by irradiated with 70 mW cm'-2 diode laser light for 25 mins", "type": "functional"}}, "data": [{"smiles": "O=S(=O)(O)c1ccc(Cl)c(-c2c3nc(c(-c4cc(S(=O)(=O)O)ccc4Cl)c4ccc([nH]4)c(-c4cc(S(=O)(=O)O)ccc4Cl)c4nc(c(-c5cc(S(=O)(=O)O)ccc5Cl)c5ccc2[nH]5)CC4)CC3)c1", "values": [{"measurement": "logP", "setting": "[1]", "result": -1.7}, {"measurement": "Time", "setting": "S91", "result": 27, "unit": "days"}]}]}
